# Measurements taken from US5444063A, “Enantiomerically pure β-D-dioxolane nucleosides with selective anti-Hepatitis B virus activity” (priority 1992, dated 1995).
# “And” between values parts separate entries of the source, which are not always exact repeats. Equal entries are not always repeated. Where two headings read alike, the source gives them in different places.
# Assays:
# HBV = experiment: Effect of nucleosides on HBV production in 2.2.15 cells (HBV virion DNA and intracellular HBV DNA); format: cell-based, Hepatitis B virus; conditions: for HBV virion DNA, day 0 / HBV virion DNA, day 3 / HBV virion DNA, day 6 / HBV virion DNA, day 9: individual culture; for HBV virion DNA, day 0, mean / HBV virion DNA, day 3, mean / HBV virion DNA, day 6, mean / HBV virion DNA, day 9, mean / Intracellular HBV DNA on Day 10, Mono, mean / Intracellular HBV DNA on Day 10, RI, mean: mean of 4 cultures; for inhibition at 1 µM / inhibition: Hepatitis B virus
# Experimental: The ability of β-D-dioxolane-nucleosides to inhibit HBV can be measured by various experimental techniques. The assay used herein to evaluate the ability of the disclosed compounds to inhibit the replication of HBV is described in detail in Korba and Gerin, Antiviral Res. 19:55-70 (1992). […] The other compounds disclosed herein are evaluated similarly.
# The antiviral evaluations were performed on two separate passages of cells, two cultures per passage (4 cultures total). All wells, in all plates, were seeded at the same density and at the same time.
# Due to the inherent variations in the levels of both intracellular and extracellular HBV DNA, only depressions greater than 3.0-fold (for HBV virion DNA) or 2.5-fold (for HBV DNA replication intermediates) from the average levels for these HBV DNA forms in untreated cells are generally considered to be statistically significant [P<0.05] (Korba and Gerin, Antiviral Res. 19: 55-70, 1992). The levels of integrated HBV DNA in each cellular DNA preparation (which remain constant on a per cell basis in these experiments) were used to calculate the levels of intracellular HBV DNA forms, thereby eliminating technical variations inherent in the blot hybridization assays.
# The test compounds were used in the form of 40 mM stock solutions in DMSO (frozen on dry ice). Daily aliquots of the test samples were made and frozen at -20° C. so that each individual aliquot would be subjected to a single freeze-thaw cycle. […] The compounds were tested for toxicity at concentrations up to 300 μM.
# [1] = Toxicity analysis of test compounds in 2.2.15 cells (neutral red dye uptake); format: cell-based; conditions: human
# Experimental: Toxicity analyses were performed in order to assess whether any observed antiviral effects are due to a general effect on cell viability. The method used was based on the uptake of neutral red dye, a standard and widely used assay for cell viability in a variety of virus-host systems, including HSV (herpes simplex virus) and HIV. Details of the procedure are provided in the toxicity table legends.
# The test compounds were used in the form of 40 mM stock solutions in DMSO (frozen on dry ice). Daily aliquots of the test samples were made and frozen at -20° C. so that each individual aliquot would be subjected to a single freeze-thaw cycle. The daily test aliquots were thawed, suspended into culture medium at room temperature and immediately added to the cell cultures° The compounds were tested at 0.0 and 1 μM for antiviral activity. The compounds were tested for toxicity at concentrations up to 300 μM.
# Toxicity analyses were performed in 96-well flat bottomed tissue culture plates. Cells for the toxicity analyses were cultured and treated with test compounds with the same schedule as used for the antiviral evaluations. Each compound was tested at 4 concentrations, each in triplicate cultures. Uptake of neutral red dye was used to determine the relative level of toxicity. The absorbance of internalized dye at […] (A510) was used for the quantitative analysis. Values are presented as a percentage of the average A510 values (±standard deviations) in 9 separate cultures of untreated cells maintained on the same 96-well plate as the test compounds.
# [2] = 0.1 μM, listed as (-)- -2,6-diNH2-purine-dioxolane
# [3] = 1.0 μM ("1.0 M" printed for the 2,6-DiNH2 compound), listed as (-)- -2,6-DiNH2-purine-dioxolane
# [4] = 1.0 μM ("1.0 M" printed for the 2,6-DiNH2 compound)
# [5] = 0 h, 1.0 μM ("1.0 M" printed for the 2,6-DiNH2 compound), read-out: % inhibition, HBV virion DNA, day 0
# [6] = 0 h, read-out: % inhibition, HBV virion DNA, day 0
# [7] = 72 h, 1.0 μM ("1.0 M" printed for the 2,6-DiNH2 compound), read-out: % inhibition, HBV virion DNA, day 3
# [8] = 72 h, read-out: % inhibition, HBV virion DNA, day 3
# [9] = 144 h, 1.0 μM ("1.0 M" printed for the 2,6-DiNH2 compound), read-out: % inhibition, HBV virion DNA, day 6
# [10] = 144 h, read-out: % inhibition, HBV virion DNA, day 6
# [11] = 216 h, 1.0 μM ("1.0 M" printed for the 2,6-DiNH2 compound), read-out: % inhibition, HBV virion DNA, day 9
# [12] = 216 h, read-out: % inhibition, HBV virion DNA, day 9
# [13] = 240 h, 1.0 μM ("1.0 M" printed for the 2,6-DiNH2 compound), read-out: % inhibition, intracellular HBV DNA Mono, Day 10
# [14] = 240 h, 1.0 μM ("1.0 M" printed for the 2,6-DiNH2 compound), read-out: % inhibition, intracellular HBV DNA RI, Day 10
# [15] = 240 h, read-out: % inhibition, intracellular HBV DNA Mono, Day 10
# [16] = 240 h, read-out: % inhibition, intracellular HBV DNA RI, Day 10
# [17] = 0.1 μM, listed as (-)- -2,6-dioxolane-G
# [18] = 1.0 μM ("1.0 M" printed for the 2,6-DiNH2 compound), listed as (-)- -2,6-dioxolane-G
SMILES,"HBV virion DNA, day 0, mean (HBV; 0.1 μM)","HBV virion DNA, day 3, mean (HBV; 0.1 μM)","HBV virion DNA, day 6, mean (HBV; 0.1 μM)","HBV virion DNA, day 9, mean (HBV; 0.1 μM)","Intracellular HBV DNA on Day 10, Mono, mean (HBV; 0.1 μM)","Intracellular HBV DNA on Day 10, RI, mean (HBV; 0.1 μM)","HBV virion DNA, day 0, mean (HBV; [4])","HBV virion DNA, day 3, mean (HBV; [4])","HBV virion DNA, day 6, mean (HBV; [4])","HBV virion DNA, day 9, mean (HBV; [4])","Intracellular HBV DNA on Day 10, Mono, mean (HBV; [4])","Intracellular HBV DNA on Day 10, RI, mean (HBV; [4])",inhibition at 1 µM (HBV; [5]),inhibition (HBV; [6]),inhibition at 1 µM (HBV; [7]),inhibition (HBV; [8]),inhibition at 1 µM (HBV; [9]),inhibition (HBV; [10]),inhibition at 1 µM (HBV; [11]),inhibition (HBV; [12]),also measured
"Nc1nc(N)c2ncn([C@H]3CO[C@@H](CO)O3)c2n1 [DAPD, (-)-(2R,4R)-2-amino-9-[(2-hydroxymethyl)-1,3-dioxolan-4-yl]adenine]",62.75 pg/ml of cultured medium,61.75 pg/ml of cultured medium,30.75 pg/ml of cultured medium,7.00 pg/ml of cultured medium,2.35 pg/μM of cellular DNA,12.00 pg/μM of cellular DNA,67.75 pg/ml of cultured medium,50.75 pg/ml of cultured medium,12.00 pg/ml of cultured medium,0.25 pg/ml of cultured medium,1.15 pg/μM of cellular DNA,2.25 pg/μM of cellular DNA,-7.54%,0.4%,21.6%,4.63%,84.4%,59.9%,99.7%,90.6%,"HBV virion DNA, day 0 (HBV; 0.1 μM): 77 pg/ml of cultured medium; HBV virion DNA, day 0 (HBV; [2]): 52 pg/ml of cultured medium and 58 pg/ml of cultured medium and 64 pg/ml of cultured medium; HBV virion DNA, day 3 (HBV; [2]): 67 pg/ml of cultured medium and 59 pg/ml of cultured medium and 62 pg/ml of cultured medium; HBV virion DNA, day 6 (HBV; [2]): 28 pg/ml of cultured medium and 34 pg/ml of cultured medium and 35 pg/ml of cultured medium and 26 pg/ml of cultured medium; HBV virion DNA, day 9 (HBV; [2]): 5 pg/ml of cultured medium and 6 pg/ml of cultured medium and 9 pg/ml of cultured medium and 8 pg/ml of cultured medium; HBV virion DNA, day 0 (HBV; [3]): 66 pg/ml of cultured medium and 70 pg/ml of cultured medium and 74 pg/ml of cultured medium and 61 pg/ml of cultured medium; HBV virion DNA, day 3 (HBV; [3]): 59 pg/ml of cultured medium and 45 pg/ml of cultured medium and 56 pg/ml of cultured medium and 43 pg/ml of cultured medium; HBV virion DNA, day 6 (HBV; [3]): 12 pg/ml of cultured medium and 10 pg/ml of cultured medium and 15 pg/ml of cultured medium and 11 pg/ml of cultured medium; HBV virion DNA, day 9 (HBV; 1.0 μM (""1.0 M"" printed for the 2,6-DiNH2 compound), zero = undetectable, listed as (-)- -2,6-DiNH2-purine-dioxolane): 0 pg/ml of cultured medium and 1 pg/ml of cultured medium; inhibition at 1 µM (HBV; [13]): 54.5%; inhibition at 1 µM (HBV; [14]): 96.9%; inhibition (HBV; [15]): 6.93%; inhibition (HBV; [16]): 83.7%; viability at 10 µM [1]: 99 ± 1%; viability at 30 µM [1]: 99 ± 3%; viability at 100 µM [1]: 88 ± 1%; viability at 300 µM [1]: 49 ± 3%"
"Nc1nc2c(ncn2[C@H]2CO[C@@H](CO)O2)c(=O)[nH]1 [Dioxolane-G, (-)-(2R,4R)-9-[(2-hydroxymethyl)-1,3-dioxolan-4-yl]guanine]",62.75 pg/ml of cultured medium,68.25 pg/ml of cultured medium,70.25 pg/ml of cultured medium,13.75 pg/ml of cultured medium,2.35 pg/μM of cellular DNA,24.00 pg/μM of cellular DNA,62.25 pg/ml of cultured medium,66.75 pg/ml of cultured medium,22.25 pg/ml of cultured medium,2.75 pg/ml of cultured medium,1.85 pg/μM of cellular DNA,4.75 pg/μM of cellular DNA,1.19%,0.4%,-1.54%,-5.41%,71%,8.47%,96.3%,81.5%,"HBV virion DNA, day 0 (HBV; [17]): 51 pg/ml of cultured medium and 59 pg/ml of cultured medium and 74 pg/ml of cultured medium and 67 pg/ml of cultured medium; HBV virion DNA, day 3 (HBV; [17]): 77 pg/ml of cultured medium and 62 pg/ml of cultured medium and 73 pg/ml of cultured medium and 61 pg/ml of cultured medium; HBV virion DNA, day 6 (HBV; [17]): 60 pg/ml of cultured medium and 70 pg/ml of cultured medium and 69 pg/ml of cultured medium and 82 pg/ml of cultured medium; HBV virion DNA, day 9 (HBV; [17]): 18 pg/ml of cultured medium and 12 pg/ml of cultured medium and 14 pg/ml of cultured medium and 11 pg/ml of cultured medium; HBV virion DNA, day 0 (HBV; [18]): 70 pg/ml of cultured medium and 50 pg/ml of cultured medium and 56 pg/ml of cultured medium and 73 pg/ml of cultured medium; HBV virion DNA, day 3 (HBV; [18]): 86 pg/ml of cultured medium and 59 pg/ml of cultured medium and 56 pg/ml of cultured medium and 62 pg/ml of cultured medium; HBV virion DNA, day 6 (HBV; [18]): 22 pg/ml of cultured medium and 24 pg/ml of cultured medium and 23 pg/ml of cultured medium and 20 pg/ml of cultured medium; HBV virion DNA, day 9 (HBV; 1.0 μM (""1.0 M"" printed for the 2,6-DiNH2 compound), zero = undetectable, listed as (-)- -2,6-dioxolane-G): 2 pg/ml of cultured medium and 4 pg/ml of cultured medium and 3 pg/ml of cultured medium; inhibition at 1 µM (HBV; [13]): 26.7%; inhibition at 1 µM (HBV; [14]): 93.5%; inhibition (HBV; [15]): 6.93%; inhibition (HBV; [16]): 67.3%; viability at 10 µM [1]: 100 ± 3%; viability at 30 µM [1]: 101 ± 2%; viability at 100 µM [1]: 88 ± 3%; viability at 300 µM [1]: 56 ± 3%"
